# Measurements reported in patent US10961233B2 (LIFEARC, priority 2016, dated 2021).
# Tests used:
# [1] = target: WT full length PAICS (Homo sapiens (Human), UniProt P22234); assay: Biochemical assay to measure PAICS activity (Transcreener ADP2 FI); conditions: SAICAR synthetase reaction, ADP detection, 30 min pre-incubation
# From the text: Biochemical Assay to Measure PAICS Activity
# The biochemical assay was used to measure PAICS SAICAR synthetase-mediated conversion of CAIR, aspartic acid and ATP to SAICAR, ADP and inorganic phosphate (Pi), post-AIR/CAIR equilibration (see FIG. 3). This was achieved by detecting the ADP generated during the reaction, using Bellbrook Lab's Transcreener ADP^2 FI assay. An increase in the fluorescence intensity is directly proportional to the amount of PAICS activity.
# The Transcreener ADP^2 FI assay is a homogeneous competitive displacement fluorescence intensity assay which uses direct immunodetection of ADP. Displacement of the tracer by ADP causes an increase in the fluorescence at excitation 590 nm and emission 617 nm (FIG. 3).
# 5 μl WT full length PAICS (final assay concentration, fac, 2.5 nM) in basic buffer, added to black, non-binding, 384-well plates (Corning #3575), columns 1 to 22. 5 μl basic buffer was added to columns 23+24 (negative control). PAICS stock at 31.9 μM from the PI's lab (Steve Firestine). Basic buffer contained 50 mM Tris-HCl pH8 and 0.5 mM EDTA, fac.
# 1 μl compound in 100% DMSO added per well, or 1 μl 100% DMSO to positive controls (columns 1+2) and negative controls (columns 23+24). Final assay top concentration of compound either 1 mM or 30-μM, serially diluted with half-log dilutions across the plate in duplicate (one 10-point concentration response curve across wells 3 to 12, another across 13 to 22). Compounds pre-incubated with PAICS enzyme for 30 mins at RT. 2 μl CAIR added (fac 10 μM) in basic buffer plus 25 mM MgCl2 and 50 mM KHCO3 fac to all wells. CAIR stock 50 mM from Steve Firestine's lab. 1 hr RT incubation for AIR-CAIR equilibration. NB: ˜50% CAIR is decarboxylated during equilibration therefore 5 μM remains for the synthetase reaction.
# 2 μl ATP/aspartic acid added (fac 30 μM/180 μM) in reaction buffer to all wells. 30 mins RT incubation for appropriate level of ATP turnover. Reaction buffer contained basic buffer plus 10 mM DTT, 0.01% BSA and 0.01% Brij 35, fac.
# 10 μl ADP detection reagent added to all wells (as per instructions, Transcreener ADP^2 FI kit, BellBrook Labs #3013-10K). Incubation for 1 h at RT to allow antibody equilibration. Fluorescence intensity determined using a Tecan Safire2 (excitation at 590 nm, emission at 617 nm).
# [2] = system: LM2 and MDA-MB-231 breast cancer cell lines; assay: PAICS 2D cell proliferation assay (CellTiter-Glo viability, 72 h); type: cell-based; conditions: Homo sapiens; 72 h incubation; cell line not given
# Experimental: PAICS 2D Cell Proliferation Assay
# Frozen cryovial stocks of LM2 and MDA-MB-231 breast cancer cell lines were thawed and cultured in 4.5 g/L glucose DMEM (31966-047, Invitrogen) supplemented with 10% Fetal Bovine Serum (10500-064, Invitrogen) until confluent in a T175 flask. Cells were incubated at 37° C. with 5% CO2 in a humidified incubator.
# Cells were collected from T175 flasks by washing with PBS (10010-056, Invitrogen) and dissociated using Accutase (A6964, Sigma Aldrich). This was followed by centrifuging (1200 rpm, 5 min) and resuspending the cells in 10 ml of media containing 1% penicillin/streptomycin (15140-122, Invitrogen). Cells were counted by trypan blue exclusion method using an automated cell counter (Cellometer) and diluted to a concentration of 40,000/ml. 1000 cells were then seeded into 384-well white-walled plates (Corning, 3707) in a volume of 25 μl. Plates were Incubated overnight at 37° C. with 5% CO2.
# After 24 hours, PAICS compounds were added onto the assay plates using an HP D300 Digital Dispenser (Hewlett Packard). 10 mM stocks were used and dispensed as a 10 point concentration response curve (CRC) ½ log dilution series with a final top concentration of 100 μM. Controls were added onto each plate: positive controls included Staurosporine CRC (100 μM stock dispensed as a 10 point CRC ½ log dilution series with a final top concentration of 1 μM) and PAICS compound MRT00211919 (10 mM stock dispensed as a 10 point CRC ½ log dilution series with a final top concentration of 100 μM); a high control of Staurosporine (0.1 μM (LM2), 0.316 μM (MDA-MB-231) FAC) and a low control of media containing 1% DMSO. A final concentration of 1% DMSO was then added across the plates for normalisation. Following compound addition, assay plates were incubated for 72 hours at 37° C. with 5% CO2.
# Day 5—Cytotoxicity and Cell Viability Assays
# After 72 h incubation, dead and viable cells were measured in each assay plate. Cytotoxicity was assessed through fluorescent DNA staining using the CellTox™ Green Cytotoxicity Assay kit (G8743, Promega) following the manufacturer's multiplexing protocol. Impaired cell membrane integrity results in the access of dye to stain DNA allowing quantification of dead cells. Cell viability was determined following ATP quantification using the CellTiter-Glo® Luminescent Cell Viability Assay kit (G7572, Promega) following the manufacturer's protocol. ATP released from lysed cells allowed for the generation of a signal proportional to the number of cells present in the well. All endpoint reads were performed using the PheraSTAR Plus (BMG Labtech). Data is expressed as % viable cells and % dead cells against controls (mean±SEM of duplicate curves).
# [3] = system: wild type LM2 and CRISPR edited LM2; assay: 2D cell proliferation assay, wild type LM2 versus PAICS CRISPR edited LM2; type: cell-based, human; conditions: LM2 cells, PAICS CRISPR edited vs wild type
# Experimental: Cas9 nuclease-mediated gene editing (Sander and Joung, 2014) was performed using a CRISPR RNA guide sequence ([…], PAM: AGG) targeting exon 3 in the human PAICS gene (accession number: NM_006452).
# Stable cell clones were isolated and gene disruption confirmed by DNA sequencing and the absence of PAICS cellular protein expression confirmed by Western blotting.
# A small set of compounds were tested against wild type LM2 and CRISPR edited LM2 in the 2D cell proliferation assay to establish to what extent the cellular potency was driven by PAICS mediated effects. The data is shown in Table 2: compounds tested had no effect on CRISPR edited cells, confirming the on-targets effect as being PAICS mediated.
# [4] = system: MDA-MB-231 Dlux cells; assay: MDA-MB-231-Dlux xenograft model; type: in vivo; conditions: oral 25 mg/kg twice daily, 2 weeks, mammary fat pad implant, MF-1 nude mice
# Experimental: Evaluation of Compound 69 in MDA-MB-231-Dlux Xenograft Model
# Mice were implanted with MDA-MB-231 Dlux cells in the mammary fat pad. Mice were treated with test agent, (Compound 69), standard of care control agent, docetaxel, or vehicle control, once tumours reached a mean volume of ˜100-200 mm^3. Tumours were measured every 2-3 days using electronic calipers and tumour volume estimated using the formula 0.5 (L×W^2). Treatment continued for 2 weeks. Mice were observed and body weight measured daily
# MF-1 (HsdOla:MF1-Foxn1^nu)
# MDA-MB-231 Dlux (Bioluminescent MDA-MD-231 variant)
# Implantation Site: Mammary fat pad (1:1 matrgel/PBS)
# Compound 69 (Oral 25 mg/kg twice daily)
# Docetaxel (IV 5 mg/kg twice weekly)
# WT full length PAICS, sequence (P22234 whole entry): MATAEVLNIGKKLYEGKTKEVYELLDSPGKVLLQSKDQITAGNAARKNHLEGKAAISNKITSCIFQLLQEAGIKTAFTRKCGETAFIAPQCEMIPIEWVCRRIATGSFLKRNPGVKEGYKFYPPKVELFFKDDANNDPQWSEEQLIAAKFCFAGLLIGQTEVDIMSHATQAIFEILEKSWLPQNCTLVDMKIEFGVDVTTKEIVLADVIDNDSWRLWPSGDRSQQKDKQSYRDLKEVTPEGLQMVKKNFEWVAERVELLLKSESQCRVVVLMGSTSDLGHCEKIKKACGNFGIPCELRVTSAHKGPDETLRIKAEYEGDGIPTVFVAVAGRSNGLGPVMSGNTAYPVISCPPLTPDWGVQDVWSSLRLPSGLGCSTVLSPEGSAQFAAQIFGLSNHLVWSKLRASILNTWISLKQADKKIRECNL
IC50 [1] [nM],EC50 [2] [nM],SMILES,Potency shift: CRISPR Cell EC50/WT Cell EC50 [3],growth of primary tumour [4]
10 to 25,100 to 250,"CN(C)CCCOC(=O)N1CCN(c2ccc(Br)c(NC(=O)c3coc(N)n3)c2)CC1 [Example 24, 3-(Dimethylamino)propyl 4-(3-(2-aminooxazole-4-carboxamido)-4-bromophenyl)piperazine-1-carboxylate]",>500,–
< 10,< 100,"CNCCS(=O)(=O)N1CCN(c2ccc(Br)c(NC(=O)c3coc(N)n3)c2)CC1 [Example 55, 2-Amino-N-[2-bromo-5-(4-{[2-(methylamino)ethyl]sulfonyl}piperazin-1-yl)phenyl]-1,3-oxazole-4-carboxamide]",>500,–
10 to 25,100 to 250,"CN(C)CCOC(=O)N1CCN(c2ccc(Br)c(NC(=O)c3coc(N)n3)c2)CC1 [Example 23, 2-(Dimethylamino)ethyl 4-(3-(2-aminooxazole-4-carboxamido)-4-bromophenyl)piperazine-1-carboxylate]",>500,–
< 10,< 100,"CN(C)CCCS(=O)(=O)N1CCN(c2ccc(Br)c(NC(=O)c3coc(N)n3)c2)CC1 [Example 69, 2-Amino-N-(2-bromo-5-(4-(3-(dimethylamino)propylsulfonyl)piperazin-1-yl)phenyl)oxazole-4-carboxamide]",>500,statistically significant reduction in growth of primary tumour
< 10,100 to 250,"CNCCCS(=O)(=O)N1CCN(c2ccc(Br)c(NC(=O)c3coc(N)n3)c2)CC1 [Example 75, 2-Amino-N-[2-bromo-5-(4-{[3-(methylamino)propyl]sulfonyl}piperazin-1-yl)phenyl]-1,3-oxazole-4-carboxamide]",–,–
> 100,500 to 1000,"Nc1nc(C(=O)Nc2cc(N3CCN(C(=O)OCC4CNC4)CC3)ccc2Cl)co1 [Example 19, Azetidin-3-ylmethyl 4-(3-(2-aminooxazole-4-carboxamido)-4-chlorophenyl) piperazine-1-carboxylate]",–,–
25 to 100,500 to 1000,"Nc1nc(C(=O)Nc2cc(N3CCN(S(=O)(=O)CCNC4CC4)CC3)ccc2Cl)co1 [Example 58, 2-Amino-N-[2-chloro-5-(4-{[2-(cyclopropylamino)ethyl]sulfonyl}piperazin-1-yl)phenyl]-1,3-oxazole-4-carboxamide]",–,–
10 to 25,100 to 250,"Nc1nc(C(=O)Nc2cc(N3CCN(C(=O)OCCNC4CC4)CC3)ccc2Br)co1 [Example 21, 2-(Cyclopropylamino)ethyl 4-(3-{[(2-amino-1,3-oxazol-4-yl)carbonyl]amino}-4-bromophenyl)piperazine-1-carboxylate]",–,–
10 to 25,250 to 500,"CN1CC(OC(=O)N2CCN(c3ccc(Br)c(NC(=O)c4coc(N)n4)c3)CC2)C1 [Example 28, 1-Methylazetidin-3-yl 4-(3-{[(2-amino-1,3-oxazol-4-yl)carbonyl]amino}-4-bromophenyl)piperazine-1-carboxylate]",–,–
< 10,< 100,"Nc1nc(C(=O)Nc2cc(N3CCN(S(=O)(=O)CCCN4CCCC4)CC3)ccc2Br)co1 [Example 67, 2-Amino-N-[2-bromo-5-(4-{[3-(pyrrolidin-1-yl)propyl]sulfonyl}piperazin-1-yl)phenyl]-1,3-oxazole-4-carboxamide]",–,–
> 100,500 to 1000,"CN1CCC(OC(=O)N2CCN(c3ccc(Cl)c(NC(=O)c4coc(N)n4)c3)CC2)C1 (stereo not drawn) [Example 30, 1-Methylpyrrolidin-3-yl 4-(3-{[(2-amino-1,3-oxazol-4-yl)carbonyl]amino}-4-chlorophenyl)piperazine-1-carboxylate]",–,–
